The record followed here is PMC12040169 (PLOS Biology, 2025).

A short description of the series: in vitro. Conditions: human, hela cells, % viability.
As for `C=CCN(Cc1nc(-c2ccccc2)no1)C(=O)Nc1ccc(C)cc1` [CBK269859], the viability at 28.5 h, 10 µM was determined as 103%.

`COc1cc(CNCCc2c[nH]c3ccccc23)cc(Cl)c1OC` [CBK269861C]: the viability at 28.5 h, 10 µM is 88.5%. Under `N#Cc1ccccc1Cn1cc(C(=O)C(N)=O)c2ccccc21` [CBK269862] stands 93.5%; under `CC(C)N(Cc1nc(-c2ccccc2)no1)C(=O)Nc1cccc(Cl)c1` [CBK269871], 93.5%. Regarding `Cc1ccc(NC(=O)CSc2nnc(-c3cnccn3)s2)cc1` [CBK269872], the viability at 28.5 h, 10 µM was 83.3%. As for `COc1cc2c(cc1OC)C(C)N(C(=O)CCC(=O)O)CC2` (stereo not drawn) [CBK269873], the viability at 28.5 h, 10 µM is 92.5%. Under `CCOc1cc(S(=O)(=O)NCCCn2ccnc2)ccc1Cl` [CBK269874] stands 89%; under `Cc1ccnc(SCc2cc(=O)c3c(=O)n(-c4ccccc4)[nH]c3[nH]2)n1` [CBK269875], 110%. With `COc1ccc(Cl)cc1S(=O)(=O)N1CCC(C(=O)NCc2cccnc2)CC1` [CBK269878], the viability at 28.5 h, 10 µM was 93.4%.

Consider `COc1cccc(C(=O)Nc2cnn(CCCC(=O)O)c2)c1` [CBK269879], for which the viability at 28.5 h, 10 µM turned out to be 89.6%.

In the case of `O=C(NCCc1c[nH]cn1)NC12CC3CC(CC(C3)C1)C2` [CBK269880], the viability at 28.5 h, 10 µM was determined as 86.2%. Under `COc1ccc(CNC(=O)CSc2cnn[nH]2)cc1` [CBK269881] stands 85.6%; under `O=C(O)Cn1nnc(-c2ccncc2)n1` [CBK269884], 86.6%. In the case of `Cc1cc(S(=O)(=O)N2CCCC2)ccc1OCC(=O)NCc1ccncc1` [CBK269886] it was 91.3%; in that of `Cc1ccc(SCCNc2nc3c([nH]2)c(=O)n(C)c(=O)n3C)cc1` [CBK269887], 92.7%; in that of `O=C(Nc1ccc(N2CCOCC2)cc1)c1ccc(-n2cnnc2)cc1Cl` [CBK269889], 91%.

Regarding `COCCn1c(CN2CCOCC2)nc2c1c(=O)[nH]c(=O)n2C` [CBK269890], the viability at 28.5 h, 10 µM was 100%.

As for `Nc1nc2c(s1)c(=O)[nH]c(=O)n2-c1ccc(Cl)cc1` [CBK269891], the viability at 28.5 h, 10 µM was determined as 78.1%. In the case of `COc1c(C)cc(S(=O)(=O)NCCN2CCOCC2)c(C)c1C` [CBK269893] it was 94.1%. Under `Cc1cc(NS(=O)(=O)N2CCOCC2)no1` [CBK269894] stands 89.9%. In the case of `COc1ccc(CCNc2nc3c([nH]2)c(=O)n(C)c(=O)n3C)cc1` [CBK269897] it was 85.5%; in that of `CC(=O)Nc1ccc(NC(=O)C2COc3ccccc3O2)cc1C` (stereo not drawn) [CBK269898], 99.1%; in that of `Fc1ccc(COc2ccc(Cl)cc2CNCc2ccccn2)cc1` [CBK269899C], 85.5%. For the molecule `O=C(NCc1ccco1)c1cc(S(=O)(=O)N2CCOCC2)ccc1Br` [CBK269907], the viability at 28.5 h, 10 µM is 90.7%. For `Cc1ccc2[nH]c(SCc3nc(O)c4ccccc4n3)nc2c1` [CBK269908], the viability at 28.5 h, 10 µM was determined as 84%. Under `COc1ccc2c(c1)c1nc(C)sc1n2CCN1CCCCC1` [CBK269909C] stands 93.3%; under `O=S(=O)(NCCCn1ccnc1)c1cccs1` [CBK269912], 95.1%. Turning to `COc1ccc2oc(C(=O)NCCN3CCOCC3)c(C)c2c1OC` [CBK269913C], the viability at 28.5 h, 10 µM is 86.8%. Under `COc1ccc(CNc2ccc(N3CCOCC3)c(C(=O)O)c2)cc1OC` [CBK269915] stands 95.2%; under `O=C(CSc1nc2cc(Cl)ccc2[nH]1)Nc1ccccc1F` [CBK269916], 84.8%; under `COc1ccc(Cl)cc1S(=O)(=O)N(C)CC(=O)O` [CBK269919], 97.1%. As for `Cc1nc(SCC(=O)O)nc(O)c1CCC(C)C` [CBK269920], the viability at 28.5 h, 10 µM stood at 92.9%. Under `Cc1ccc(C)c(OCC(=O)Nc2ccccc2C(=O)N2CCN(C)CC2)c1` [CBK269924] stands 91.1%; under `Cc1cc(C)n(CC(=O)NCC2CCCO2)c(=O)c1C#N` (stereo not drawn) [CBK269926], 85.4%; under `OCc1nnc2c3ccccc3c(-c3ccccc3)nn12` [CBK269927], 94.2%. `CCOc1ccc(-c2cnc(SCC(=O)O)nc2N)cc1` [CBK269928]: the viability at 28.5 h, 10 µM is 105%. Under `CC(C)(C)c1ccc(C(=O)Nc2cnn(CCCC(=O)O)c2)cc1` [CBK269929] stands 94.2%. Under `CC(NC(=O)OC(C)(C)C)c1nnc(SCC(=O)N(C)C)o1` (stereo not drawn) [CBK269932] stands 88.3%; under `CCNC(=O)c1ccccc1NC(=O)C(C)Oc1ccccc1` (stereo not drawn) [CBK269933], 85.8%; under `CCOc1ccc2ccccc2c1CNCc1cccnc1` [CBK269934C], 91.8%.

As for `O=C(O)COc1ccc(S(=O)(=O)N2CCCc3ccccc32)cc1` [CBK269935], the viability at 28.5 h, 10 µM came to 110%. As for `CCOC(=O)CSc1nc(=O)cc(N)n1Cc1ccc(F)cc1` [CBK269938], the viability at 28.5 h, 10 µM came to 91.1%. In the case of `OCCn1c(COc2cccc3cccnc23)nc2ccccc21` [CBK269942] it was 79.5%; in that of `O=S(=O)(NCc1cccnc1)N1CCOCC1` [CBK269945], 85.1%; in that of `Cc1nn(Cc2cccc3ccccc23)c(C)c1NC(=O)c1cccnc1` [CBK269946], 90.6%. Under `CNCc1cccc(OC)c1OCc1ccccc1F` [CBK269949C] stands 99.2%. In the case of `CC(=O)Nc1cccc(NC(=O)CN(C)S(=O)(=O)c2ccc(F)cc2)c1` [CBK269951] it was 90.2%. Take `CCOc1ccc(S(=O)(=O)N(C)CC(=O)N2CCN(C)CC2)cc1` [CBK269953]: the viability at 28.5 h, 10 µM came to 93.8%.

Consider `CCOc1cc(C)c(Cl)cc1S(=O)(=O)NCc1ccncc1` [CBK269954], for which the viability at 28.5 h, 10 µM was found to be 85.8%. In the case of `Cc1[nH]c2cc(C(=O)O)ccc2c1CC(=O)O` [CBK269955] it was 98%; in that of `COc1ccc(OC)c(NC(=O)NCCc2c[nH]cn2)c1` [CBK269956], 92.4%. Take `NS(=O)(=O)c1ccc(-c2nc(-c3ccccc3)no2)cc1` [CBK269957]: the viability at 28.5 h, 10 µM amounted to 87.8%. Under `CCOc1ccc(C(=O)Nc2ccc(S(=O)(=O)N3CCN(C)CC3)cc2)cc1` [CBK269959] stands 85.5%; under `Cc1nn(CCC(=O)NCc2ccco2)c(C)c1Cl` [CBK269961], 88.8%. Under `O=C(NCCc1c[nH]c2ccc(F)cc12)Nc1ccccc1` [CBK269964] stands 107%; under `CCOC(=O)CC1C(=O)NCCN1Cc1cccc(C)n1` (stereo not drawn) [CBK269965], 101%.

`O=C(O)CCCn1cc(NC(=O)c2cc(F)c(F)cc2Cl)cn1` [CBK269967]: the viability at 28.5 h, 10 µM was found to be 87.8%. Under `CCOc1ccc(S(=O)(=O)N2CCCC(C(=O)NCCO)C2)cc1` (stereo not drawn) [CBK269968] stands 83.8%; under `COc1ccc(NC(=O)CSc2cnn[nH]2)c(OC)c1` [CBK269969], 76.7%.

With `Cc1cc(C)nc(Nc2noc(-c3ccccc3)n2)n1` [CBK269971], the viability at 28.5 h, 10 µM came out at 94.5%. Under `CCOc1ccc(N2C(=O)CC(NC3CCN(c4ncccn4)CC3)C2=O)cc1` (stereo not drawn) [CBK269972] stands 112%. Under `CCOc1cccc(CNc2ccc(N3CCOCC3)c(C(=O)O)c2)c1` [CBK269973] stands 92.9%. Under `O=C(NCCc1cnc[nH]1)NC1CCCCC1` [CBK269975] stands 100%; under `CN1CCN(c2nc3c([nH]2)c(=O)n(C)c(=O)n3C)CC1` [CBK269976], 86.1%. For `Oc1c(CN2CCOCC2)ccc(CN2CCOCC2)c1O` [CBK269979], the viability at 28.5 h, 10 µM came out at 100%. Under `O=C(Nc1ccccc1)c1cccc(S(=O)(=O)NCc2ccncc2)c1` [CBK269980] stands 102%; under `COc1cc(CNC(C)c2ccccc2)ccc1OCC(N)=O` (stereo not drawn) [CBK269982C], 92.8%. Under `O=C(COc1ccc2c(c1)OCO2)NCc1ccccn1` [CBK269983] stands 95.3%; under `Cc1cn2c3c(=O)n(CCN4CCOCC4)c(=O)n(C)c3nc2n1CC1CCCO1` (stereo not drawn) [CBK269985], 92.3%. For `O=C(O)CNS(=O)(=O)c1c(F)c(F)c(F)c(F)c1F` [CBK269986], the viability at 28.5 h, 10 µM came to 84.6%.

Take `Fc1ccc(COc2cccc(CNCc3ccccn3)c2)cc1` [CBK269987C]: the viability at 28.5 h, 10 µM is 109%. Under `COc1cc(S(=O)(=O)NCc2ccncc2)c(C)cc1C` [CBK269988] stands 91.8%; under `NC(=O)c1c(NC(=O)CSC2=NCCS2)sc2c1CCCC2` [CBK269989], 87.9%; under `Cc1nn(Cc2cccc3ccccc23)c(C)c1NC(=O)c1ccncc1` [CBK269990], 93.4%. In the case of `O=C(CSc1nnc(-c2ccccn2)[nH]1)NC1CC2CCC1C2` (stereo not drawn) [CBK269994] it was 83%; in that of `COc1ccc(S(=O)(=O)NCCCn2ccnc2)cc1Cl` [CBK269997], 97.2%. Under `O=C(CSCc1ccc(Cl)c(Cl)c1)Nc1ncccn1` [CBK269998] stands 89.7%; under `COc1ccc(S(=O)(=O)NCCN2CCOCC2)c(Cl)c1Cl` [CBK269999], 95%; under `COc1ccc(OCc2nnn[nH]2)cc1` [CBK270000], 89.9%. In the case of `CC(C)C(NS(=O)(=O)c1ccccc1)C(=O)Nc1ccccc1` (stereo not drawn) [CBK270001], the viability at 28.5 h, 10 µM was 87.8%. Turning to `Cn1nc(C(=O)NCc2ccccc2)cc1C(=O)NCc1ccccc1` [CBK270004], the viability at 28.5 h, 10 µM stood at 92%.

`Cc1ccc(CN2C(=O)CC(Sc3ncccc3C(=O)O)C2=O)cc1` (stereo not drawn) [CBK270006]: the viability at 28.5 h, 10 µM was 91.2%. Consider `Cc1cccc(Cn2nc(C)c(NC(=O)COc3ccccc3)c2C)c1` [CBK270007], for which the viability at 28.5 h, 10 µM turned out to be 93.5%. Regarding `O=C(O)CC1C(=O)NCCN1Cc1ccc(F)c(F)c1` (stereo not drawn) [CBK270008], the viability at 28.5 h, 10 µM came out at 85.3%.
